{
  "source": "ChEMBL document CHEMBL1765075",
  "about": "“Discovery and structure-activity relationship of 3-aminopyrid-2-ones as potent and selective interleukin-2 inducible T-cell kinase (Itk) inhibitors” (J Med Chem, 2011)",
  "key": {"[1]": {"target": "Tyrosine-protein kinase HCK (Homo sapiens, UniProt P08631)", "assay": "Inhibition of HCK"}, "[2]": {"target": "Cytoplasmic tyrosine-protein kinase BMX (Homo sapiens, UniProt P51813)", "assay": "Inhibition of BMX"}, "[3]": {"target": "T1, Proto-oncogene tyrosine-protein kinase Src (Homo sapiens, UniProt P12931)", "T1 sequence (P12931 2-536 limits assumed)": "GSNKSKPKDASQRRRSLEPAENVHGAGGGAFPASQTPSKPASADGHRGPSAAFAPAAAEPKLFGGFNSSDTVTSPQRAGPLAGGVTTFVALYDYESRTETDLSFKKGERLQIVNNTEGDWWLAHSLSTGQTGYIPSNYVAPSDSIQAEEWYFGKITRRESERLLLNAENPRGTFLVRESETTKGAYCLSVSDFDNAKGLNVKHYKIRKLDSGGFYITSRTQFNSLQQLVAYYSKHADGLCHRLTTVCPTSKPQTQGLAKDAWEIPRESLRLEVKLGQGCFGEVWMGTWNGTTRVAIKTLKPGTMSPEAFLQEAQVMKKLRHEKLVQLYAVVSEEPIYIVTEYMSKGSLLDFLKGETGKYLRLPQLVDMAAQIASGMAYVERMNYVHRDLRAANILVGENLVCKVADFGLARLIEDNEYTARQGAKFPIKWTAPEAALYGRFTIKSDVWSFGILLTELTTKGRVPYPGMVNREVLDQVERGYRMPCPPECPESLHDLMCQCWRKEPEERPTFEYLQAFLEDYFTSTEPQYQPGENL", "assay": "Inhibition of Src after 10 mins by radiometric phosphate incorporation assay"}, "[4]": {"target": "Calcium/calmodulin-dependent protein kinase type IV (Homo sapiens, UniProt Q16566)", "assay": "Inhibition of CAMK4"}, "[5]": {"target": "T2, Serine/threonine-protein kinase Chk1 (Homo sapiens, UniProt O14757)", "T2 sequence (O14757 whole entry)": "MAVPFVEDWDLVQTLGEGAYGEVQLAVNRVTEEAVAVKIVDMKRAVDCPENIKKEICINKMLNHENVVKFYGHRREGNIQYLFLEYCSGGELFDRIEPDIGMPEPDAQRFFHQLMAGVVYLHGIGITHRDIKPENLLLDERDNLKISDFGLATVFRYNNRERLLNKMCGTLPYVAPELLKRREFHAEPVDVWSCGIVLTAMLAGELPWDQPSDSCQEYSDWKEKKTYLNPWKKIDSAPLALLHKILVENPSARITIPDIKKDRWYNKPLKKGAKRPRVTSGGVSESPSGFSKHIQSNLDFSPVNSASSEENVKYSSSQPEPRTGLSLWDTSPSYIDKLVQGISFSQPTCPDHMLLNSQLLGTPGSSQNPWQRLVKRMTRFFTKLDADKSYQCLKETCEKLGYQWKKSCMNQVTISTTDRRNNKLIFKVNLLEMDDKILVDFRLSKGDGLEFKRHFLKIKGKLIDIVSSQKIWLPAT", "assay": "Inhibition of CHEK1"}, "[6]": {"assay": "Inhibition of CK1"}, "Aurora kinase A": {"target": "Aurora kinase A (Homo sapiens, UniProt O14965)", "assay": "Inhibition of AURORA A"}, "[7]": {"target": "Calcium/calmodulin-dependent protein kinase type 1D (Homo sapiens, UniProt Q8IU85)", "assay": "Inhibition of CAMK1D"}, "[8]": {"target": "Ribosomal protein S6 kinase alpha-5 (Homo sapiens, UniProt O75582)", "assay": "Inhibition of MSK1"}, "[9]": {"target": "Mitogen-activated protein kinase kinase kinase 7 (Homo sapiens, UniProt O43318)", "sequence (O43318 whole entry)": "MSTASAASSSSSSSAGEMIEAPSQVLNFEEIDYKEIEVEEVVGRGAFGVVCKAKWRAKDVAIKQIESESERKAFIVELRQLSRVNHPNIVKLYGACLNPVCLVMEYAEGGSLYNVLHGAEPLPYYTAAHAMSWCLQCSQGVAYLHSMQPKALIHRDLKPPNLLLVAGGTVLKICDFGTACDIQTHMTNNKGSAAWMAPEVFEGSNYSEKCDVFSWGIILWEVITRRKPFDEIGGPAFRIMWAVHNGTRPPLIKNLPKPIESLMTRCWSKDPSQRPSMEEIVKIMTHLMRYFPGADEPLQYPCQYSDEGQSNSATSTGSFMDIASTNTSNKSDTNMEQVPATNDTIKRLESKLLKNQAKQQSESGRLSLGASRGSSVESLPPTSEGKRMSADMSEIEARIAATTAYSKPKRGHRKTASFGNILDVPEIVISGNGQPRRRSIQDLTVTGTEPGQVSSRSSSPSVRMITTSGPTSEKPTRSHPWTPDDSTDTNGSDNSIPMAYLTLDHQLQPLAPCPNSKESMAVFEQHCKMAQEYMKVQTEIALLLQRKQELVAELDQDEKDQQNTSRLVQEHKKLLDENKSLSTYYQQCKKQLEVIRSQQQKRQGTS", "assay": "Inhibition of TAK1"}, "Angiopoietin-1 receptor": {"target": "Angiopoietin-1 receptor (Homo sapiens, UniProt Q02763)", "assay": "Inhibition of TIE2"}, "[10]": {"target": "Macrophage colony-stimulating factor 1 receptor (Homo sapiens, UniProt P07333)", "sequence (P07333 whole entry, looked up)": "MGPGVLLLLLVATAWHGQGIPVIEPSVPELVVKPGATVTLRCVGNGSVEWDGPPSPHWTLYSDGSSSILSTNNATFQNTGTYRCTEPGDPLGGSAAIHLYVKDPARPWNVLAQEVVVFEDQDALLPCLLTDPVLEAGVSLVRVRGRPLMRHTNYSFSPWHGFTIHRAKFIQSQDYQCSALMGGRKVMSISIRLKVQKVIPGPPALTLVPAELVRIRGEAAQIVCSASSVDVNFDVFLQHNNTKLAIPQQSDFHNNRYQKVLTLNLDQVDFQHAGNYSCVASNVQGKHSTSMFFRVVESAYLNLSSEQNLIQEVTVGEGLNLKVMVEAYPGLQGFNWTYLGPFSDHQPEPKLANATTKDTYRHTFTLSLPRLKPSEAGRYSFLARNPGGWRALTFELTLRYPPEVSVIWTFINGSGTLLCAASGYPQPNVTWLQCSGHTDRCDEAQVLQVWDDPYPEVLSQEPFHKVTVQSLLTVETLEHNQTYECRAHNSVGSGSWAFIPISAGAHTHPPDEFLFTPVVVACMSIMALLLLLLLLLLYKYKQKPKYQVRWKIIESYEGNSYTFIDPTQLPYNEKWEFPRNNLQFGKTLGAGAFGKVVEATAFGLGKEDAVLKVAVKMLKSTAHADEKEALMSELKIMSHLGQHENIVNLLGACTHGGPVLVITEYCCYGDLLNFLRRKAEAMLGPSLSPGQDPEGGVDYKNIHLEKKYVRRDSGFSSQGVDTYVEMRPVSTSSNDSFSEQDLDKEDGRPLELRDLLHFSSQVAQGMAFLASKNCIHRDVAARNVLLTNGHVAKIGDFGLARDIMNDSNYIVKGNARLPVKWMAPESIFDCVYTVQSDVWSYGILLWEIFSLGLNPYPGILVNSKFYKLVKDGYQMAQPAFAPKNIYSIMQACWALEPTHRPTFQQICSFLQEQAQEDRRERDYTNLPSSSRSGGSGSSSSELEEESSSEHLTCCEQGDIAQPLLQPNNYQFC", "assay": "Inhibition of FMS"}, "[11]": {"target": "T1, Proto-oncogene tyrosine-protein kinase Src", "assay": "Inhibition of SRC"}, "[12]": {"target": "Proto-oncogene tyrosine-protein kinase ROS (Homo sapiens, UniProt P08922)", "assay": "Inhibition of ROS"}, "[13]": {"assay": "Inhibition of AMPK"}, "[14]": {"target": "Tyrosine-protein kinase Fes/Fps (Homo sapiens, UniProt P07332)", "assay": "Inhibition of FES"}, "[15]": {"target": "Tyrosine-protein kinase ZAP-70 (Homo sapiens, UniProt P43403)", "assay": "Inhibition of ZAP70"}, "[16]": {"target": "Tyrosine-protein kinase Yes (Homo sapiens, UniProt P07947)", "assay": "Inhibition of YES"}, "[17]": {"target": "Mitogen-activated protein kinase 8 (Homo sapiens, UniProt P45983)", "assay": "Inhibition of JNK1"}, "[18]": {"target": "Dual specificity mitogen-activated protein kinase kinase 1 (Homo sapiens, UniProt Q02750)", "assay": "Inhibition of MEK1"}, "[19]": {"assay": "Permeability across basolateral to apical side of human Caco2 cells after 120 mins by LC-MS/MS analysis", "type": "ADME, cell-based", "conditions": "Caco-2, read-out: permeability"}, "[20]": {"target": "T2, Serine/threonine-protein kinase Chk1", "assay": "Inhibition of CHK1"}, "[21]": {"target": "Protein kinase C beta type (Homo sapiens, UniProt P05771)", "sequence (P05771 whole entry)": "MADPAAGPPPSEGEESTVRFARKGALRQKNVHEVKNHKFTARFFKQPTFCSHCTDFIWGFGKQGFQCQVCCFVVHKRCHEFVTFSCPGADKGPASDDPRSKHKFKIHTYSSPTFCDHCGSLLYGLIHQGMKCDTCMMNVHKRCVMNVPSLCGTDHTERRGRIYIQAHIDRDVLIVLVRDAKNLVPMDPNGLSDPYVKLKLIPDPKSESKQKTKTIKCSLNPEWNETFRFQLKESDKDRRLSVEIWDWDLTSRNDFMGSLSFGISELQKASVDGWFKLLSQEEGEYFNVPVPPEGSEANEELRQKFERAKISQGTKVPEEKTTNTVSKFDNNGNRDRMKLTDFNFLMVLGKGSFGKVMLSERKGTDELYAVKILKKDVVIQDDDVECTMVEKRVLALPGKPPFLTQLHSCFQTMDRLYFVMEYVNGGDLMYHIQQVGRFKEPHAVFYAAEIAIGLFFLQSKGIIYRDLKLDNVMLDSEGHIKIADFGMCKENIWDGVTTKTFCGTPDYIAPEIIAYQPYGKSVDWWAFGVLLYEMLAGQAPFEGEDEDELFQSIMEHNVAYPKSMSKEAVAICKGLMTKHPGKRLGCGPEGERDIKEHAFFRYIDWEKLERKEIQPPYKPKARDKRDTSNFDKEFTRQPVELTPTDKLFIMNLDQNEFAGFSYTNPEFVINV", "assay": "Inhibition of PKCbeta"}, "[22]": {"target": "Glycogen synthase kinase-3 beta (Homo sapiens, UniProt P49841)", "assay": "Inhibition of GSK3-beta"}, "[23]": {"target": "Dual specificity mitogen-activated protein kinase kinase 6 (Homo sapiens, UniProt P52564)", "sequence (P52564 whole entry)": "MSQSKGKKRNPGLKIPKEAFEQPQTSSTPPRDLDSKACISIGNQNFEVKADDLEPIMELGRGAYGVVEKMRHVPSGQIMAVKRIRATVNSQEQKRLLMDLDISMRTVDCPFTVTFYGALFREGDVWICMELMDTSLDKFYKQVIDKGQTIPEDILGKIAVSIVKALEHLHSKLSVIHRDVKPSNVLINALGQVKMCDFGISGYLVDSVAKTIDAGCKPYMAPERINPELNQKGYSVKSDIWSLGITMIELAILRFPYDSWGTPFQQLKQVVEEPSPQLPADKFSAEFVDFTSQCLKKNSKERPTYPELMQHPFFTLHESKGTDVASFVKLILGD", "assay": "Inhibition of MKK6"}, "[24]": {"assay": "Octanol-phosphate buffer partition coefficient, log D of the compound at pH 7.4 by HPLC analysis", "type": "physicochemical"}, "[25]": {"target": "Proto-oncogene tyrosine-protein kinase receptor Ret (Homo sapiens, UniProt P07949)", "assay": "Inhibition of RET"}, "[26]": {"target": "Vascular endothelial growth factor receptor 2 (Homo sapiens, UniProt P35968)", "assay": "Inhibition of KDR"}, "[27]": {"target": "Serine/threonine-protein kinase Sgk1 (Homo sapiens, UniProt O00141)", "assay": "Inhibition of SGK1"}, "[28]": {"target": "Ribosomal protein S6 kinase alpha-1 (Homo sapiens, UniProt Q15418)", "assay": "Inhibition of RSK1"}, "[29]": {"target": "Mitogen-activated protein kinase 3 (Homo sapiens, UniProt P27361)", "assay": "Inhibition of ERK1"}, "[30]": {"target": "Fibroblast growth factor receptor 4 (Homo sapiens, UniProt P22455)", "assay": "Inhibition of FGFR4"}, "Ephrin type-B receptor 2": {"target": "Ephrin type-B receptor 2 (Homo sapiens, UniProt P29323)", "assay": "Inhibition of EPHB2"}, "[31]": {"target": "Dual specificity tyrosine-phosphorylation-regulated kinase 1A (Homo sapiens, UniProt Q13627)", "assay": "Inhibition of DYRK1A"}, "Insulin receptor": {"target": "Insulin receptor (Homo sapiens, UniProt P06213)", "assay": "Inhibition of IR"}, "[32]": {"target": "Mitogen-activated protein kinase 1 (Homo sapiens, UniProt P28482)", "assay": "Inhibition of ERK2"}, "[33]": {"target": "T3, Tyrosine-protein kinase ITK/TSK (Homo sapiens, UniProt Q08881)", "T3 sequence (Q08881 whole entry)": "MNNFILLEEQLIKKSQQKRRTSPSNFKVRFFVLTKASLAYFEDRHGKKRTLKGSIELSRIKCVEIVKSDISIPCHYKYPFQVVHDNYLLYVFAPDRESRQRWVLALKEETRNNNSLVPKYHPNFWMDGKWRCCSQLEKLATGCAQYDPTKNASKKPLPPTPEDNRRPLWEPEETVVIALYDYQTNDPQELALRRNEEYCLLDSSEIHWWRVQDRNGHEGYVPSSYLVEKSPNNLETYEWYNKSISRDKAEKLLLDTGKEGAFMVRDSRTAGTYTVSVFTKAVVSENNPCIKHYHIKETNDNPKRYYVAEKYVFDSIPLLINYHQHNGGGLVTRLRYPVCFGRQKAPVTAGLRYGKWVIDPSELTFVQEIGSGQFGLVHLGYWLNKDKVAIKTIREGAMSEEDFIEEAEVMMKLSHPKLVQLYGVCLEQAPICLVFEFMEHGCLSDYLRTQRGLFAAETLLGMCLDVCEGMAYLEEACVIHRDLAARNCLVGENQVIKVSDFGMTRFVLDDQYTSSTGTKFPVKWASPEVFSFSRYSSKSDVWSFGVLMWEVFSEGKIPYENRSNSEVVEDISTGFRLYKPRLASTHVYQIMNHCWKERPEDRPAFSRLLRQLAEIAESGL", "assay": "Inhibition of Itk after 40 mins by radiometric phosphate incorporation assay"}, "[34]": {"target": "Receptor tyrosine-protein kinase erbB-4 (Homo sapiens, UniProt Q15303)", "assay": "Inhibition of ERBB4"}, "[35]": {"assay": "Inhibition of RLK"}, "[36]": {"target": "Serine/threonine-protein kinase N2 (Homo sapiens, UniProt Q16513)", "assay": "Inhibition of PRK2"}, "[37]": {"assay": "Permeability across apical to basolateral side of human Caco2 cells after 120 mins by LC-MS/MS analysis", "type": "ADME, cell-based", "conditions": "Caco-2, read-out: permeability"}, "[38]": {"target": "Ribosomal protein S6 kinase beta-1 (Homo sapiens, UniProt P23443)", "assay": "Inhibition of P70S6K1"}, "[39]": {"target": "Tyrosine-protein kinase ABL1 (Homo sapiens, UniProt P00519)", "assay": "Inhibition of ABL"}, "[40]": {"target": "Tyrosine-protein kinase CSK (Homo sapiens, UniProt P41240)", "sequence (P41240 whole entry)": "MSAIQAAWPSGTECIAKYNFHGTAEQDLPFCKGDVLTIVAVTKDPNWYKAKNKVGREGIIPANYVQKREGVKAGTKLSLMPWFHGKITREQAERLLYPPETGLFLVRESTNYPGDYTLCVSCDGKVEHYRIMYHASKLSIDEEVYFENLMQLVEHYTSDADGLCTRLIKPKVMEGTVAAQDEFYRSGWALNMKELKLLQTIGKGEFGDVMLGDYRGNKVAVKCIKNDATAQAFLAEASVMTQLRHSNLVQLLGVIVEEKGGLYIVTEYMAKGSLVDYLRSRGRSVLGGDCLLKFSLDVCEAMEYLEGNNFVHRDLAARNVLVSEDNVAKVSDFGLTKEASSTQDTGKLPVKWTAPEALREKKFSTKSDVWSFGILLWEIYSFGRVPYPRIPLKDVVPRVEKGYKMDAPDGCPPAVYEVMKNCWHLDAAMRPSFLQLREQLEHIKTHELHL", "assay": "Inhibition of CSK"}, "[41]": {"target": "Tyrosine-protein kinase BTK (Homo sapiens, UniProt Q06187)", "assay": "Inhibition of BTK"}, "[42]": {"target": "Inhibitor of nuclear factor kappa-B kinase subunit alpha (Homo sapiens, UniProt O15111)", "sequence (O15111 whole entry)": "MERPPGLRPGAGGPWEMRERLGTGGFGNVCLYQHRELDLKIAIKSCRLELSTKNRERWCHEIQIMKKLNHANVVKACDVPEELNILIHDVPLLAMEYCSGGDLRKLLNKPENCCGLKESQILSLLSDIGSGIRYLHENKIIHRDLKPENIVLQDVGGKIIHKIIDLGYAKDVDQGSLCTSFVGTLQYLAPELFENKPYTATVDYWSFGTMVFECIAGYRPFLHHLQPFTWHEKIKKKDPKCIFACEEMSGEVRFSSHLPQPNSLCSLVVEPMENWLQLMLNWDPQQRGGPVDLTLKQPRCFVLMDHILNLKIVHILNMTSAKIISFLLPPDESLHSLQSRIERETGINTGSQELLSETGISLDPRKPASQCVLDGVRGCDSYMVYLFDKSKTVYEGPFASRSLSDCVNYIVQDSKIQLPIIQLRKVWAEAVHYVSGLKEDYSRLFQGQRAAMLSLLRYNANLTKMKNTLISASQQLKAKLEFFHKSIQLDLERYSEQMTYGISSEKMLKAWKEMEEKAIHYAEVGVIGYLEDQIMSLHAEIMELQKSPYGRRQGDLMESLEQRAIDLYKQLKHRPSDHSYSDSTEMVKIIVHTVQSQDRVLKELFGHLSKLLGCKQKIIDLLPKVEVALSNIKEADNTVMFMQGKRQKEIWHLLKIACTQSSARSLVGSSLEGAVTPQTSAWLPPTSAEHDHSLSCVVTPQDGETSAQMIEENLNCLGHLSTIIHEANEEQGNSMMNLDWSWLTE", "assay": "Inhibition of IKKalpha"}, "[43]": {"target": "Tyrosine-protein kinase Lyn (Homo sapiens, UniProt P07948)", "assay": "Inhibition of LYNA"}},
  "note": "pKi: −log10 of the molar value.",
  "data": [
    {"smiles": "CNc1cncc(-c2c[nH]c(=O)c(NC(=O)c3ccc(N4CCC[C@H]4CN4CCCC4)cc3)c2)n1", "values": [
      {"measurement": "pKi", "setting": "[1]", "result": "< 6.00"},
      {"measurement": "pKi", "setting": "[2]", "result": "< 6.00"},
      {"measurement": "pKi", "setting": "[3]", "result": 6.92},
      {"measurement": "pKi", "setting": "[4]", "result": "< 6.00"},
      {"measurement": "pKi", "setting": "[5]", "result": "< 6.00"},
      {"measurement": "pKi", "setting": "[6]", "result": "< 6.00"},
      {"measurement": "pKi", "setting": "Aurora kinase A", "result": "< 6.00"},
      {"measurement": "pKi", "setting": "[7]", "result": "< 6.00"},
      {"measurement": "pKi", "setting": "[8]", "result": "< 6.00"},
      {"measurement": "pKi", "setting": "[9]", "result": 6.07},
      {"measurement": "pKi", "setting": "Angiopoietin-1 receptor", "result": "< 6.00"},
      {"measurement": "pKi", "setting": "[10]", "result": "< 6.00"},
      {"measurement": "pKi", "setting": "[11]", "result": 6.92},
      {"measurement": "pKi", "setting": "[12]", "result": "< 6.00"},
      {"measurement": "pKi", "setting": "[13]", "result": "< 6.00"},
      {"measurement": "pKi", "setting": "[14]", "result": "< 6.00"},
      {"measurement": "pKi", "setting": "[15]", "result": "< 5.70"},
      {"measurement": "pKi", "setting": "[16]", "result": "< 6.00"},
      {"measurement": "pKi", "setting": "[17]", "result": "< 6.00"},
      {"measurement": "pKi", "setting": "[18]", "result": "< 6.00"},
      {"measurement": "Papp B→A at 2 h", "setting": "[19]", "result": 32.4, "unit": "×10⁻⁶ cm/s"},
      {"measurement": "pKi", "setting": "[20]", "result": "< 6.00"},
      {"measurement": "pKi", "setting": "[21]", "result": "< 6.00"},
      {"measurement": "pKi", "setting": "[22]", "result": "< 6.00"},
      {"measurement": "pKi", "setting": "[23]", "result": "< 6.00"},
      {"measurement": "logD", "setting": "[24]", "result": 2.8},
      {"measurement": "pKi", "setting": "[25]", "result": "< 6.00"},
      {"measurement": "pKi", "setting": "[26]", "result": 6.37},
      {"measurement": "pKi", "setting": "[27]", "result": "< 6.00"},
      {"measurement": "pKi", "setting": "[28]", "result": "< 6.00"},
      {"measurement": "pKi", "setting": "[29]", "result": "< 5.70"},
      {"measurement": "pKi", "setting": "[30]", "result": "< 6.00"},
      {"measurement": "pKi", "setting": "Ephrin type-B receptor 2", "result": "< 6.00"},
      {"measurement": "pKi", "setting": "[31]", "result": "< 6.00"},
      {"measurement": "pKi", "setting": "Insulin receptor", "result": "< 6.00"},
      {"measurement": "pKi", "setting": "[32]", "result": "< 5.70"},
      {"measurement": "pKi", "setting": "[33]", "result": 8.15},
      {"measurement": "pKi", "setting": "[34]", "result": "< 6.00"},
      {"measurement": "pKi", "setting": "[35]", "result": "< 5.70"},
      {"measurement": "pKi", "setting": "[36]", "result": "< 6.00"},
      {"measurement": "Papp A→B at 2 h", "setting": "[37]", "result": 10.8, "unit": "×10⁻⁶ cm/s"},
      {"measurement": "pKi", "setting": "[38]", "result": "< 6.00"},
      {"measurement": "pKi", "setting": "[39]", "result": "< 6.00"},
      {"measurement": "pKi", "setting": "[40]", "result": "< 6.00"},
      {"measurement": "pKi", "setting": "[41]", "result": "< 6.00"},
      {"measurement": "pKi", "setting": "[42]", "result": "< 6.00"},
      {"measurement": "pKi", "setting": "[43]", "result": "< 6.00"}
    ]}
  ]
}
